The values below are quoted from earlier work in article PMC5941251 (Molecular Pharmaceutics, 2018).

As to `CC1(C)C(/C=C/C=C/C=C/C=C2\N(CCCCS(=O)(=O)O)c3ccc4ccccc4c3C2(C)C)=[N+](CCCCS(=O)(=O)[O-])c2ccc3ccccc3c21` [ICG, indocyanine green], the “risk of anaphylactic shock” value is 0.05–0.2%.
